In paper PMC12055592, “Post-symptomatic NLRP3 inhibition rescues cognitive impairment and mitigates amyloid and tau driven neurodegeneration” (Npj Dementia, 2025):

Legend:
[1] = system: 5XFAD/Rubicon KO mice; assay: Sucrose preference test in 5XFAD/Rubicon KO mice; assay type: in vivo, mouse
Procedure: (§1) 5XFAD/Rubicon KO mice received vehicle (0.5% w/v methylcellulose/0.1% w/v Tween® 80 in water) or VEN-02XX (0.01, 1, or 20 mg/kg) every day by oral gastric gavage for 9 weeks.
Basal preference to sucrose was first assessed on all enrolled mice. Individually housed mice were acclimated to the testing room for 48 h and to the two-bottle setup, where both bottles contained water, for 3 days. A 2% sucrose solution replaced the water in one bottle, and water consumption was measured for 4 consecutive days, while rotating the position of the sucrose-containing bottle. At the end of the testing period, both bottles were measured, and sucrose preference was calculated by dividing the intake from the sucrose bottle by the intake from both bottles, expressed as the percentage of sucrose preference. Preference to sucrose was re-assessed at 6- and 9-weeks following dosing with VEN-02XX. The test was performed as described above, with one bottle switched for 3% sucrose water. As before, bottles were rotated daily to reduce bias and leakage concerns, and the consumption was monitored for 4 days.

[2] = system: 5XFAD/Rubicon KO mice; assay: Brain cytokine/chemokine quantification (ECLIA) in 5XFAD/Rubicon KO mice; assay type: in vivo, mouse; conditions: 9 weeks PO QD
Procedure: as §1
Brain tissue was homogenized in PBS, pH 7.4 with 1X Halt™ protease inhibitor cocktail (Thermo Fisher Scientific, Waltham, MA) using a Bead Ruptor homogenizer (Omni International, Kennesaw, GA). Homogenates were clarified by centrifugation at 10,000 × g for 10 min. The crude homogenate was used for quantification of VEN-02XX levels, as described below. Total protein concentrations were quantified from clarified supernatants in a Pierce BCA protein assay (Thermo Fisher Scientific). Cytokine and chemokine levels were quantified using an electrochemiluminescence immunoassay (ECLIA) for IL-1β (total), TNFα, IL-6 and IP-10 (U-PLEX Custom Biomarker Group 1 (mouse) assay, Meso Scale Discovery, Rockville, MD) following the manufacturer’s instructions. Neurofilament light chain plasma levels were quantified using an enzyme-linked immunosorbent assay (ELISA) from Uman Diagnostics (CAT#: 20-8002) following the manufacturer’s instructions.

[3] = system: NLRP3 inflammasome, IL-1β in iPSC-derived microglia; assay: iPSC-derived microglia in vitro assay, secreted IL-1β; assay type: cell-based; conditions: for IC50: Microglia, geometric mean, n = 5
Procedure: iPSC-derived microglia (BX-0900, BrainXell, Madison, WI) were thawed and recovered as per the supplier’s instructions. Briefly, viable cells were counted post-thaw using Trypan Blue, 0.4% (Thermo Fisher Scientific) and 25,000 cells were seeded on poly-d-lysine coated 96-well plates in DMEM-F/12 medium (Thermo Fisher Scientific) supplemented with 1X B-27 supplement (Thermo Fisher Scientific), 1X N-2 supplement (Thermo Fisher Scientific), 1X Non-essential amino acids (Thermo Fisher Scientific), 1X Chemically defined lipid mix (Thermo Fisher Scientific), 1 mM GlutaMax (Thermo Fisher Scientific), 0.2 mM Ascorbic Acid (Millipore), 100 ng/mL IL-34 (PeproTech, Cranbury, NJ), 2 ng/mL TGF-β1 (PeproTech) and 20 ng/mL M-CSF (PeproTech). Fresh media was added 3 days after seeding, half of which was replenished with fresh media 6 days following seeding. The assay was performed 7 days after cells were seeded in 96-well plates. Two assay protocol variations were performed: cells were either pre-treated with VEN-02XX to block NLRP3 inflammasome formation and then primed with LPS (Fig. 1, D. Compound added before LPS priming) or were primed with LPS and then treated with VEN-02XX (Fig. 1, D. Compound added after LPS priming). For compound treatment, cells were treated with VEN-02XX for 1 h (top concentration 100 µM; 3-fold titration) to block NLRP3 inflammasome formation. For LPS priming, cells were primed with 100 ng/mL LPS (E.coli O26:B6, Millipore) for 4 h. At the end of either protocol, cells were stimulated with 10 uM Nigericin (Millipore) for 1 h, after which conditioned media was collected for analysis of secreted IL-1β, IL-18 and TNFα in an electrochemiluminescence immunoassay (Mesoscale Discovery).

[4] = system: NLRP3 inflammasome, IL-1β release in human PBMCs; assay: PBMC in vitro assay (LPS priming, nigericin, secreted IL-1β); assay type: cell-based
Procedure: Cryopreserved human PBMCs (iXCells Biotechnologies, San Diego, CA) were rapidly thawed and incubated overnight at 37 °C with 5% CO2 in Complete Media: RPMI 1640 medium (ATCC modification, Thermo Fisher Scientific) supplemented with 10% Fetal bovine serum (FBS, Thermo Fisher Scientific) and 1% Penicillin-Streptomycin (Thermo Fisher Scientific). The next day, cells were centrifuged (300 × g, 5 min), resuspended in Assay Media (Complete Media without FBS) and plated at 33,333 cells/well in a 96-well cell culture plate. PBMCs were then primed with 100 ng/ml LPS (E. coli O26:B6) for 4 h. Following LPS priming, PBMCs were incubated with VEN-02XX pre-diluted in assay media with 0.8% DMSO, for 30 min (top concentration 100 µM; 4-fold titration). Following drug incubation, PBMCs were stimulated with 10 µM Nigericin (Millipore-Sigma, Burlington, MA) for an additional 60 min, after which conditioned media was collected for analysis of secreted IL-1β in an electrochemiluminescence immunoassay (Mesoscale Discovery).

[5] = system: NLRC4; assay: NLRC4 in vitro selectivity assay (THP1-Null2 cells, Needle-Tox, IL-1β); assay type: cell-based; conditions: n = 2; top concentration 50 µM
[6] = system: NLRP1; assay: NLRP1 in vitro selectivity assay (Normal Human Epidermal Keratinocytes, Val-boroPro, IL-1β); assay type: cell-based; conditions: n = 2; top concentration 50 µM
Procedure: Normal Human Epidermal Keratinocytes pooled from juvenile donors (PromoCell, Heidelberg, Germany) were cultured in Keratinocyte Growth Medium 2 (PromoCell). Cells were seeded at 12,000 cells/well in a 96-well cell culture plate and incubated for 16 h at 37 °C with 5% CO2. The next day, the media was replaced with fresh media, and cells were pre-incubated for 60 min with VEN-02XX (top concentration 50 µM; 5-fold titration) before the addition of Val-boroPro mesylate (MedChemExpress, Monmouth Junction, NJ) at a final concentration of 7.5 µM. After a 30-h incubation at 37 °C with 5% CO2, supernatants were collected and IL-1β levels were determined in an electrochemiluminescence immunoassay (Mesoscale Discovery).

CC(C)(O)CNc1nnc(-c2ccc(Cl)cc2C(F)(F)F)c2ccncc12 [VEN-02XX]
water consumption ([1]; 6 and 9 weeks, sucrose preference test): no changes in water consumption | sucrose preference (anhedonia) ([1]; 6 weeks post-dose initiation, 20 mg/kg PO QD): significant improvement | sucrose preference (anhedonia) ([1]; 6 weeks post-dose initiation, lower doses (0.01, 1 mg/kg) PO QD): trending reversal in the pre-dosing anhedonia | sucrose preference (anhedonia) ([1]; 9 weeks, 1 mg/kg and 20 mg/kg PO QD, dose-dependent): significant improvements | hippocampal IL-1β (total), IL-6, IP-10 and TNFα levels ([2]; 20 mg/kg, levels comparable to WT, lack of statistical significance): notable reduction in all measured inflammatory markers | hippocampal IL-1β [2]: almost complete ablation of IL-1β within the hippocampus | IC50 ([3]; compound added after LPS priming): 250 nM | IC50 ([3]; compound added before LPS priming): 300 nM | potency of NLRP3 inhibition in iPSC-derived microglia ([3]; in words): sub-micromolar potency | IC50 ([4]; Homo sapiens, PBMC, geometric mean, n = 3, read-out: IL-1β inhibition (PBMCs) IC50): 350 nM | potency of NLRP3 inhibition in PBMC ([4]; in words): sub-micromolar potency | block of IL-1β release downstream of NLRC4 [5]: inability to block IL-1β release | block of IL-1β release downstream of NLRP1 [6]: inability to block IL-1β release
